{"source": "patent US12486253B2", "about": "“Therapeutics for the degradation of mutant BRAF” (C4 THERAPEUTICS, INC., priority 2021, dated 2025)", "key": {"[1]": {"test_system": "A375 NRAS^Q61K mutant melanoma cell line xenograft", "assay": "In vivo efficacy in A375 NRAS^Q61K mutant melanoma xenograft", "set-up": "species or system BALBc/Nude mice", "conditions": "oral gavage"}, "A375 cells": {"test_system": "A375 cells", "assay": "A375 cell growth (GI50)", "assay_type": "cell-based", "conditions": "Homo sapiens, A-375, at 96 hr"}, "HCT-116": {"test_system": "HCT-116", "assay": "HCT-116 cell growth", "assay_type": "cell-based", "conditions": "HCT-116, mutant KRAS driven, WT BRAF"}, "BRAF (wild type)": {"target": "T1, BRAF (wild type) (Homo sapiens, UniProt P15056)", "T1 construct": "host or cells: JURKAT", "assay": "Global proteomics profiling, JURKAT cells", "assay_type": "cell-based", "conditions": "300 nM, 24 hours", "description": "(§1) Each cell line was treated in duplicate with either DMSO or Compound 157 (final concentration 300 nM) for 24 hours in an incubator at 37° C. with 5% CO2. After the 24-hour incubation, cells were harvested, washed twice with PBS, and snap frozen in liquid nitrogen. Samples were re-suspended in lysis buffer [8 M urea, 50 mM HEPES (pH 8.5), 50 mM NaCl, 1× protease inhibitor cocktail] and lysed by sonication at 4° C. with 85% amplitude in a pulse setting with 30 seconds on and 30 seconds off for a total sonication time of 5 minutes. Lysates were centrifuged at maximum speed for 10 minutes at 4° C. and the supernatant collected, reduced for 1 hour at room temperature with 5 mM TCEP, and the cysteine residues were then alkylated with 15 mM iodoacetamide (room temperature, in dark, 30 minutes). Protein content was extracted by methanol-chloroform precipitation and subsequent ice-cold acetone washes. Protein pellets were resuspended in 8 M urea, 50 mM HEPES (pH 8.5) buffer and protein concentrations were measured by BCA assay. […]\n(§2) For peptide tandem mass tag (TMT) labeling, 100 μg of peptides per sample was prepared at […] concentration in 200 mM HEPES (pH 8.5), 30% acetonitrile (ACN) and each the specific TMT reagent. […] TMT reporter ion intensities were quantified by extracting the signal-to-noise ratio for each. […]"}, "RAF1 (a.k.a CRAF)": {"target": "RAF1 (a.k.a CRAF) (Homo sapiens, UniProt P04049)", "sequence (P04049 whole entry)": "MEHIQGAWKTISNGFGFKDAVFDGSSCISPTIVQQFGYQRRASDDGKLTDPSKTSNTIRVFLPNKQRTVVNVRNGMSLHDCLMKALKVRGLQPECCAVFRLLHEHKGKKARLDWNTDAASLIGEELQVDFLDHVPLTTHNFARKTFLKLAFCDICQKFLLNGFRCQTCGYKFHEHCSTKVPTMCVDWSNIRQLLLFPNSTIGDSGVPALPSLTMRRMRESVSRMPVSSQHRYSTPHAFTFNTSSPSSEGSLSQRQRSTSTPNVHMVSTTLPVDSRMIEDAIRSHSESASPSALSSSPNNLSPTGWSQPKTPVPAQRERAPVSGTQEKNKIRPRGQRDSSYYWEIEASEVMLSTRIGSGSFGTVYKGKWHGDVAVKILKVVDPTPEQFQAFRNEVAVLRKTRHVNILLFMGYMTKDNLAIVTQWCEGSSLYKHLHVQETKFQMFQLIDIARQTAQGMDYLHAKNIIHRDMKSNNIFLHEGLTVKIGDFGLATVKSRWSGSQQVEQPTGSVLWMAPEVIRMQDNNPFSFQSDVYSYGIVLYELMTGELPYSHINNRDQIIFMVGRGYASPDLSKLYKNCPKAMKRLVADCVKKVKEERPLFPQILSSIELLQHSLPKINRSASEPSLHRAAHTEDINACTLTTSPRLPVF", "assay": "Global proteomics profiling, A375 cells", "assay_type": "cell-based", "set-up": "endogenous in cells; host or cells: A375 (A8.2)", "conditions": "300 nM, 24 hours", "description": "as §1, §2"}, "A375-NRAS^Q61K cells": {"test_system": "A375-NRAS^Q61K cells", "assay": "CellTiter-Glo growth inhibition assay, A375-NRAS^Q61K cells", "assay_type": "cell-based", "conditions": "96 hr, mean of at least n = 3", "description": "A375-NRAS^Q61K cells (harboring BRAF homozygous V600E mutation and NRAS homozygous Q61K mutation) were purchased from ATCC. DMEM Medium (without phenol red and supplemented with L-glutamine) was purchased from Corning (Corning, NY, USA). CellTiter-Glo® 2.0 Assay was purchased from Promega (Madison, WI, USA). Cell culture flasks and 384-well microplates were acquired from VWR (Radnor, PA, USA) or Corning (Corning, NY, USA).\nA375-NRAS^Q61K cell viability was determined based on quantification of ATP using CellTiter-Glo® 2.0 luminescent Assay kit, which signals the presence of metabolically-active cells. Briefly, test compound was added to 384-well plates at a top concentration of 10 μM with 14 points, half log titration in duplicates. A375-NRAS^Q61K cells were seeded into the 384-well plates in DMEM medium containing 10% FBS at a cell density of 250 cells per well. Cells treated in the absence of the test compound were the negative control, normalized to 100% viability, and cells treated in the absence of CellTiter-Glo® 2.0 were the positive control, normalized to 0% viability. A375 cells were incubated at 37° C. with 5% CO2 for 96 hr. CellTiter-Glo reagent was then added to the cells and Luminescence was acquired on EnVision™ Multilabel Reader (PerkinElmer, Santa Clara, CA, USA)."}, "[2]": {"target": "T2, BRAF class III mutant G466V (Homo sapiens, UniProt P15056, G466V)", "T2 construct": "host or cells: HEK-293T, lentiviral expression", "T2 sequence (P15056 whole entry G466V)": "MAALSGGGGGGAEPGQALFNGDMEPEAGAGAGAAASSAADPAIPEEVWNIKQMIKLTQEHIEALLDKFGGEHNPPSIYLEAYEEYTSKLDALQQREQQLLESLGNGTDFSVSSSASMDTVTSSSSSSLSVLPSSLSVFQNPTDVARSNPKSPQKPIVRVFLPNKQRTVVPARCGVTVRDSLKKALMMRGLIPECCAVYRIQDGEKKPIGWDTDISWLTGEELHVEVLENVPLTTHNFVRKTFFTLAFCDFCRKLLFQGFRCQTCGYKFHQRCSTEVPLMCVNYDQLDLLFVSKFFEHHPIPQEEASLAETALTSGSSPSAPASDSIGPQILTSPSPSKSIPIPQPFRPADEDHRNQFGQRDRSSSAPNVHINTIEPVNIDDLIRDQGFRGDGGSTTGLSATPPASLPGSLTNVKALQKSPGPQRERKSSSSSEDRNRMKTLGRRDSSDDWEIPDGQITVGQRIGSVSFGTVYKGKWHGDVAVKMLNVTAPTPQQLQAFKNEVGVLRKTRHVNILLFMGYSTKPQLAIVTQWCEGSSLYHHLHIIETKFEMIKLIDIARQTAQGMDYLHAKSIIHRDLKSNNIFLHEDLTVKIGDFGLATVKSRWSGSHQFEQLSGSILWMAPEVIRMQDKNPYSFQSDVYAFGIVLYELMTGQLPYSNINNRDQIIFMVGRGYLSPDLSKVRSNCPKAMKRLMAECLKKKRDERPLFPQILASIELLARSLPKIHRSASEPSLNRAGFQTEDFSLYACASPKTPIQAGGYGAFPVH", "assay": "Western blot of engineered HEK-293T cells expressing class III mutant G466V", "assay_type": "cell-based", "conditions": "lentivirus expression"}, "ERK phosphorylation": {"test_system": "ERK phosphorylation", "assay": "ERK phosphorylation (pERK) in A375 cells", "assay_type": "cell-based"}, "A375 tumors": {"test_system": "A375 tumors", "assay": "In vivo efficacy in A375 xenografts", "set-up": "species or system BALB/c nude mice"}}, "note": "“Also recorded” adds a separate entry of the source."}
{"smiles": "CCN(C)S(=O)(=O)Nc1ccc(F)c(Oc2ccc3ncn([C@H]4COC5(CCN(C(=O)CC6(O)CCN(c7cc8c(cc7F)c(N7CCC(=O)NC7=O)nn8C)CC6)CC5)C4)c(=O)c3c2)c1C#N", "note": "[Compound 157, (3R)-3-[6-[2-cyano-3-[[ethyl(methyl)sulfamoyl]amino]-6-fluorophenoxy]-4-oxoquinazolin-3-yl]-8-[2-[1-[3-(2,4-dioxo-1,3-diazinan-1-yl)-5-fluoro-1-methylindazol-6-yl]-4-hydroxypiperidin-4-yl]acetyl]-1-oxa-8-azaspiro[4.5]decane]", "values": [{"measurement": "tumor response, single agent", "setting": "[1]; single agent", "value": "robust tumor growth inhibition; also recorded: efficacious"}, {"measurement": "tumor response, in combination with trametinib", "setting": "[1]; with MEKi trametinib 0.1 mg/kg BID", "value": "tumor regressions"}, {"measurement": "GI50", "setting": "A375 cells", "value": 94, "unit": "nM"}, {"measurement": "effect on cell growth", "setting": "HCT-116", "value": "no effect; also recorded: no impact on cell growth"}, {"measurement": "BRAF protein level change", "setting": "BRAF (wild type)", "value": "unchanged"}, {"measurement": "RAF1 (CRAF) protein level change", "setting": "RAF1 (a.k.a CRAF)", "value": "remain largely unchanged"}, {"measurement": "GI50", "setting": "A375-NRAS^Q61K cells", "value": 55, "unit": "nM"}, {"measurement": "degradation of class III mutant G466V", "setting": "[2]", "value": "capable of degrading"}, {"measurement": "ERK phosphorylation by western blot", "setting": "ERK phosphorylation", "value": "significantly drops off"}, {"measurement": "efficacy compared with encorafenib", "setting": "A375 tumors; oral delivery", "value": "more efficacious than a clinically relevant dose of encorafenib"}, {"measurement": "tumor response", "setting": "A375 tumors; oral, 10 mg/kg BID", "value": "profound tumor regressions"}]}
